Marks after values point to notes of the source that are not given here. Strand notation (5' to 3'): a small letter for the sugar, then the base; units joined by * are phosphorothioate-linked, units joined directly phosphodiester-linked; [ ] holds rarer units or linkages, { } end groups; capitals alone tell only the bases. k = constrained ethyl (cEt); [5mC] = 5-methylcytosine; d = 2'-deoxy (DNA)

This data set deals with Yap1 mRNA. Put plainly: Antisense inhibition of human Yap1 in A-431 cells by cEt gapmers, single dose (Example 3, RTS36584). Format: cell-based. The method, boiled down:
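Read-out is Yap1 mRNA as percent of untreated control, by quantitative RT-PCR normalized to total RNA (RiboGreen). Cells (A-431) received 2,000 nM of 3-10-3 cEt phosphorothioate gapmer via free uptake for roughly 48 hours.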

Setting [1] is: Table 27, Yap1 mRNA by 3-10-3 cEt gapmers targeting SEQ ID NO.: 1, and 2, percent of untreated control.
The mark [2] stands for this setting: Table 10, A-431 cells, 5,000 cells per well, free uptake, 2,000 nM oligonucleotide, approx. 48 hours, primer probe set RTS36584, Yap1 mRNA normalized to RIBOGREEN, percent of untreated control.
The mark [3] stands for this setting: Table 8, A-431 cells, 5,000 cells per well, free uptake, 2,000 nM, approximately 48 hours, RTS36584, normalized to RIBOGREEN, Yap1 mRNA relative to untreated control cells.
Where [4] appears, read: Table 34, Yap1 mRNA as percent of untreated control, 3-10-3 cEt gapmers targeting SEQ ID NO: 1 and 2, single dose.
Setting [5] is: Table 26, Yap1 mRNA by 3-10-3 cEt gapmers targeting SEQ ID NO.: 1, and 2, percent of untreated control.
The mark [6] stands for this setting: Table 35, Yap1 mRNA as percent of untreated control, 3-10-3 cEt gapmers targeting SEQ ID NO: 1 and 2, single dose.
Setting [7] is: Table 11, A-431 cells, 5,000 cells per well, free uptake, 2,000 nM oligonucleotide, approx. 48 hours, primer probe set RTS36584, Yap1 mRNA normalized to RIBOGREEN, percent of untreated control.
The mark [8] stands for this setting: Table 12, A-431 cells, 5,000 cells per well, free uptake, 2,000 nM modified oligonucleotide, approx. 48 hours, RTS36584, normalized to RIBOGREEN, Yap1 mRNA relative to untreated control cells.

Turning to “1075437 (antisense kT*kA*kT*dT*dA*dG*dT*dA*d[5mC]*dG*dA*dG*d[5mC]*kT*kA*k[5mC]) [compound 1075437]”, the “YAP1 (% UTC)” value under setting [1] is 85 % UTC.

Take “958547 (k[5mC]*kA*k[5mC]*dA*dT*dA*d[5mC]*dT*d[5mC]*dT*dA*dG*dT*kT*kA*k[5mC]; antisense) [Compound 958547]”: the “YAP1 (% UTC)” value under setting [2] amounted to 4 % UTC. For the substance “958366 (antisense kT*kG*kT*dA*dG*d[5mC]*dT*dG*d[5mC]*dT*d[5mC]*dA*dT*kG*k[5mC]*kT) [Compound 958366]”, under setting [3], the “YAP1 (% UTC)” value is 16* % UTC. Regarding “1075220 (kA*kA*kT*dT*dT*dT*dA*dA*d[5mC]*dT*dG*dT*dG*kA*k[5mC]*k[5mC]; antisense) [compound 1075220]”, the “YAP1 (% UTC)” value under setting [4] came out at 24 % UTC. As to “1074356 (antisense kG*kA*kG*dG*dG*dA*d[5mC]*dA*d[5mC]*dT*dG*dT*dA*kG*k[5mC]*kT) [compound 1074356]”, the “YAP1 (% UTC)” value under setting [4] is recorded as 43 % UTC.

“1076212 (k[5mC]*kA*kA*dA*dT*dT*dT*dA*dT*dA*dT*dG*d[5mC]*kT*k[5mC]*k[5mC]; antisense) [compound 1076212]”: the “YAP1 (% UTC)” value under setting [4] was 15 % UTC. On to “1075692 (kT*kA*kA*dG*dA*dA*d[5mC]*dA*d[5mC]*d[5mC]*dA*dT*dA*kG*k[5mC]*kA; antisense) [compound 1075692]”, for which, under setting [5], the “YAP1 (% UTC)” value worked out at 11 % UTC. On to “958452 (antisense k[5mC]*kT*k[5mC]*d[5mC]*dA*dG*dG*dT*d[5mC]*dG*dG*dT*d[5mC]*kT*k[5mC]*k[5mC]) [Compound 958452]”, for which the “YAP1 (% UTC)” value under setting [2] is listed as 26 % UTC. Regarding “1074709 (antisense kT*k[5mC]*kT*dA*dG*dA*dA*d[5mC]*dA*dG*d[5mC]*dT*dG*k[5mC]*k[5mC]*kT) [compound 1074709]”, the “YAP1 (% UTC)” value under setting [6] is 71 % UTC. As for “958523 (kT*kT*k[5mC]*d[5mC]*dA*dA*dT*d[5mC]*dG*dA*dG*dA*d[5mC]*kT*kT*kA; antisense) [Compound 958523]”, the “YAP1 (% UTC)” value under setting [7] stood at 3 % UTC. As for “958654 (kA*kA*kT*dG*dG*dA*dG*dT*dG*dG*d[5mC]*d[5mC]*dG*kG*kG*k[5mC]; antisense) [Compound 958654]”, under setting [8], the “YAP1 (% UTC)” value is 110 % UTC. On the same count and under the same terms, in the case of “958509 (kA*kT*kG*dT*dT*dA*dT*dG*dT*dT*dT*dG*dG*kG*kT*kG; antisense) [Compound 958509]” it was 4 % UTC. Regarding “1076238 (kG*kA*kT*dG*dA*dA*dT*dA*dG*d[5mC]*dT*dA*dA*kG*kA*kA; antisense) [compound 1076238]”, the “YAP1 (% UTC)” value (Table 28, Yap1 mRNA as percent of untreated control, 3-10-3 cEt gapmers targeting SEQ ID NO.: 1, and 2) stood at 30 % UTC.

Turning to “1076533 (kA*kT*kT*dT*dT*dT*dA*dG*dT*d[5mC]*d[5mC]*dA*dG*kT*kG*kG; antisense) [compound 1076533]”, the “YAP1 (% UTC)” value under setting [6] was found to be 9 % UTC. Regarding “958517 (kT*k[5mC]*kT*dA*dG*dA*dA*d[5mC]*dA*d[5mC]*dT*dA*dA*kA*k[5mC]*kT; antisense) [Compound 958517]”, the “YAP1 (% UTC)” value under setting [2] is on record as 88 % UTC.

With “1074220 (antisense kA*kA*kT*dG*dA*dG*d[5mC]*dT*d[5mC]*dG*dA*dA*d[5mC]*kA*kT*kG) [compound 1074220]”, under setting [5], the “YAP1 (% UTC)” value is recorded as 22 % UTC. Consider “958666 (kG*kA*kA*dA*dA*dG*dG*dG*d[5mC]*dA*dA*dT*d[5mC]*kA*kT*kA; antisense) [Compound 958666]”, for which, under “Table 9, A-431 cells, 5,000 cells per well, free uptake, 2,000 nM, approximately 48 hours, RTS36584, normalized to RIBOGREEN, Yap1 mRNA relative to untreated control cells”, the “YAP1 (% UTC)” value is reported as 52 % UTC. In the case of “1075092 (kT*kT*kA*dA*dA*dA*d[5mC]*dA*dA*d[5mC]*dG*dA*dA*kT*kG*kA; antisense) [compound 1075092]”, under setting [4], the “YAP1 (% UTC)” value is 63 % UTC. With “1074636 (antisense kA*kT*k[5mC]*dT*dA*dT*d[5mC]*dT*dT*d[5mC]*d[5mC]*d[5mC]*dA*kA*kG*k[5mC]) [compound 1074636]”, the “YAP1 (% UTC)” value under setting [5] is listed as 56 % UTC. Consider “1075253 (kG*kT*kT*dA*dA*dT*dT*dA*d[5mC]*dG*dA*dT*dT*kA*kG*kA; antisense) [compound 1075253]”, for which the “YAP1 (% UTC)” value under setting [6] is listed as 20 % UTC. As for “1074677 (antisense k[5mC]*kT*kA*d[5mC]*dT*dG*dG*d[5mC]*dA*dA*dA*dT*dT*kA*kT*kA) [compound 1074677]”, the “YAP1 (% UTC)” value under setting [6] worked out at 22 % UTC. As for “958460 (antisense kT*k[5mC]*kG*d[5mC]*dA*dT*d[5mC]*dT*dG*dT*dT*dG*d[5mC]*kT*kG*k[5mC]) [Compound 958460]”, the “YAP1 (% UTC)” value (Table 13, A-431 cells, 5,000 cells per well, free uptake, 2,000 nM modified oligonucleotide, approx. 48 hours, RTS36584, normalized to RIBOGREEN, Yap1 mRNA relative to untreated control cells) is recorded as 52 % UTC.

For the substance “958792 (antisense kG*k[5mC]*k[5mC]*dA*dA*dT*dG*dG*dA*dG*dT*d[5mC]*dA*k[5mC]*k[5mC]*kA) [Compound 958792]”, the “YAP1 (% UTC)” value under setting [2] worked out at 46 % UTC. As to “958464 (antisense kG*k[5mC]*kT*d[5mC]*dA*dT*dG*d[5mC]*dT*dT*dA*dG*dT*k[5mC]*k[5mC]*kA) [Compound 958464]”, the “YAP1 (% UTC)” value under setting [8] was 3* % UTC.

Turning to “1075629 (antisense kG*k[5mC]*k[5mC]*dG*d[5mC]*dA*dA*dA*dA*dT*dA*dT*dT*kA*kA*kT) [compound 1075629]”, the “YAP1 (% UTC)” value under setting [1] is on record as 100 % UTC. For the substance “1074164 (k[5mC]*k[5mC]*kA*dG*dG*d[5mC]*dG*dA*dG*d[5mC]*dG*dA*dG*kG*kG*k[5mC]; antisense) [compound 1074164]”, the “YAP1 (% UTC)” value under setting [4] came out at 135 % UTC. For “1074159 (k[5mC]*kG*kA*dG*d[5mC]*dG*dA*dG*dG*dG*d[5mC]*dT*dA*k[5mC]*kG*k[5mC]; antisense) [compound 1074159]”, the “YAP1 (% UTC)” value (Table 29, Yap1 mRNA as percent of untreated control, 3-10-3 cEt gapmers targeting SEQ ID NO.: 1, and 2) is given as 77 % UTC. In the case of “958763 (antisense k[5mC]*kA*k[5mC]*dA*dA*dT*dA*d[5mC]*dA*dA*dG*dA*dT*kG*k[5mC]*kA) [Compound 958763]”, under setting [7], the “YAP1 (% UTC)” value was 3 % UTC. Take “958478 (antisense kG*kG*kA*dA*dA*dT*dT*dT*d[5mC]*d[5mC]*dG*dG*dT*kG*k[5mC]*kA) [Compound 958478]”: the “YAP1 (% UTC)” value under setting [7] was determined as 14 % UTC. Turning to “1075509 (k[5mC]*kA*kT*dA*dA*dT*d[5mC]*d[5mC]*d[5mC]*dT*dG*dA*d[5mC]*kT*kT*kG; antisense) [compound 1075509]”, the “YAP1 (% UTC)” value under setting [6] worked out at 81 % UTC. Consider “958732 (antisense kA*kG*k[5mC]*dA*d[5mC]*dG*dG*dT*dG*dT*dA*dG*d[5mC]*kT*kT*kT) [Compound 958732]”, for which, under setting [2], the “YAP1 (% UTC)” value came out at 60 % UTC. In the case of “958381 (antisense kT*k[5mC]*k[5mC]*dT*d[5mC]*dT*dG*d[5mC]*dG*d[5mC]*dG*d[5mC]*d[5mC]*k[5mC]*kG*k[5mC]) [Compound 958381]”, the “YAP1 (% UTC)” value under setting [3] stood at 146 % UTC. As for “958548 (kG*kA*k[5mC]*dA*d[5mC]*dA*dT*dA*d[5mC]*dT*d[5mC]*dT*dA*kG*kT*kT; antisense) [Compound 958548]”, the “YAP1 (% UTC)” value under setting [7] came out at 21 % UTC. As to “958637 (antisense k[5mC]*k[5mC]*kG*d[5mC]*dA*dG*dA*dG*dA*dG*dA*dA*dA*k[5mC]*kT*k[5mC]) [Compound 958637]”, under setting [2], the “YAP1 (% UTC)” value came out at 101 % UTC. With “958385 (antisense kG*k[5mC]*kG*d[5mC]*dG*d[5mC]*dG*d[5mC]*dA*dT*dT*dG*dT*kG*k[5mC]*kA) [Compound 958385]”, under setting [3], the “YAP1 (% UTC)” value is recorded as 115 % UTC. Regarding “958674 (kA*kA*kG*dA*dA*d[5mC]*dT*dT*dA*dG*dT*dT*d[5mC]*k[5mC]*k[5mC]*kT; antisense) [Compound 958674]”, the “YAP1 (% UTC)” value under setting [8] stood at 25 % UTC. On the same count and under the same terms, the same measure for “958479 (antisense kA*kT*kG*dG*dA*dA*dA*dT*dT*dT*d[5mC]*d[5mC]*dG*kG*kT*kG) [Compound 958479]”: 15 % UTC. Same read-out and setting: the same measure for “958489 (kT*kT*k[5mC]*dT*dA*dA*dG*dT*d[5mC]*dT*dG*dA*dG*kT*kA*kT; antisense) [Compound 958489]”: 14 % UTC; for “958584 (k[5mC]*k[5mC]*k[5mC]*dT*dA*dA*dG*d[5mC]*dT*dA*dA*dA*dG*k[5mC]*kT*kA; antisense) [Compound 958584]”: 74 % UTC. Consider “958667 (kT*kG*k[5mC]*d[5mC]*dG*dG*dG*d[5mC]*d[5mC]*d[5mC]*d[5mC]*dT*dA*kT*kG*k[5mC]; antisense) [Compound 958667]”, for which, under setting [2], the “YAP1 (% UTC)” value is on record as 80 % UTC.

In the case of “958473 (antisense kG*kT*k[5mC]*dT*d[5mC]*d[5mC]*dT*dT*dA*dG*dA*dT*d[5mC]*k[5mC]*kT*kT) [Compound 958473]”, the “YAP1 (% UTC)” value under setting [7] came out at 5 % UTC. For the substance “958400 (antisense kT*kT*kG*dA*d[5mC]*d[5mC]*dA*dA*d[5mC]*dT*dA*d[5mC]*dT*kT*kG*kA) [Compound 958400]”, under setting [3], the “YAP1 (% UTC)” value is on record as 26 % UTC. In the case of “958764 (antisense kT*kG*kG*dG*dT*d[5mC]*dT*d[5mC]*dT*dT*dG*dA*dT*kT*kT*k[5mC]) [Compound 958764]”, the “YAP1 (% UTC)” value under setting [8] turned out to be 34 % UTC.

Source of the values: patent US11214803B2, “Modulators of YAP1 expression” (Ionis Pharmaceuticals, Inc., priority 2019, dated 2022).
